Measured values from ChEMBL document CHEMBL5291721, “A preclinical secondary pharmacology resource illuminates target-adverse drug reaction associations of marketed drugs” (Nat Commun, 2023).

Key:
[1] = target: T1, 5-hydroxytryptamine receptor 1A (Homo sapiens, UniProt P08908); assay type: functional, cell-based
T1 sequence (P08908 whole entry): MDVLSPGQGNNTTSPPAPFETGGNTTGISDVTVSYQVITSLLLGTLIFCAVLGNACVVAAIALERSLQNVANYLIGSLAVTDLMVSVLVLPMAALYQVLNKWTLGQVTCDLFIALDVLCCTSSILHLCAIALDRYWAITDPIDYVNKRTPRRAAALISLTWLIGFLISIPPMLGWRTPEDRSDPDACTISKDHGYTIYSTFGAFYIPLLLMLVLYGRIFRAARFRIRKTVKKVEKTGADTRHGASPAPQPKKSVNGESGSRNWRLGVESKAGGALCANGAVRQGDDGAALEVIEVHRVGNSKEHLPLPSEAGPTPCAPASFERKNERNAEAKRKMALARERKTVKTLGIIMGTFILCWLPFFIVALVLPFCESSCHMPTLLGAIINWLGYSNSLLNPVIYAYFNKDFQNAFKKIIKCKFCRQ

[2] = target: Bile salt export pump (Homo sapiens, UniProt O95342); assay type: functional
[3] = target: Neuronal acetylcholine receptor subunit alpha-4 (Homo sapiens, UniProt P43681)
[4] = target: Adenosine receptor A2a (Homo sapiens, UniProt P29274)
[5] = target: D(3) dopamine receptor (Homo sapiens, UniProt P35462)
[6] = target: 5-hydroxytryptamine receptor 2B (Homo sapiens, UniProt P41595); assay type: functional, cell-based
[7] = target: T2, Alpha-2A adrenergic receptor (Homo sapiens, UniProt P08913); assay type: functional, cell-based
T2 sequence (P08913 whole entry): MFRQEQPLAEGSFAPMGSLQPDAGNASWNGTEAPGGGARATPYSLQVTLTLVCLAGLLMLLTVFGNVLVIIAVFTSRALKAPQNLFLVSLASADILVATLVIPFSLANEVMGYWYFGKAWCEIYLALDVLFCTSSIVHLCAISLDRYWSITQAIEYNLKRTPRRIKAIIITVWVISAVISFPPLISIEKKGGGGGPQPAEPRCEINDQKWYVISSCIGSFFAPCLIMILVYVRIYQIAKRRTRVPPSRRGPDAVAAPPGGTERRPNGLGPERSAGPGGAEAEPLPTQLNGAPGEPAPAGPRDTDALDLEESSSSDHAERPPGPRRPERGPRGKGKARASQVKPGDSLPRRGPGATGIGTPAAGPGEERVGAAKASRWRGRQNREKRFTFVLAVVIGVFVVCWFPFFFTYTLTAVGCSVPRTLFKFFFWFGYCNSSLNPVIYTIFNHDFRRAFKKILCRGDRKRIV

[8] = target: Motilin receptor (Homo sapiens, UniProt O43193)
[9] = target: T3, 5-hydroxytryptamine receptor 3A (Homo sapiens, UniProt P46098); assay type: functional
T3 sequence (P46098 whole entry): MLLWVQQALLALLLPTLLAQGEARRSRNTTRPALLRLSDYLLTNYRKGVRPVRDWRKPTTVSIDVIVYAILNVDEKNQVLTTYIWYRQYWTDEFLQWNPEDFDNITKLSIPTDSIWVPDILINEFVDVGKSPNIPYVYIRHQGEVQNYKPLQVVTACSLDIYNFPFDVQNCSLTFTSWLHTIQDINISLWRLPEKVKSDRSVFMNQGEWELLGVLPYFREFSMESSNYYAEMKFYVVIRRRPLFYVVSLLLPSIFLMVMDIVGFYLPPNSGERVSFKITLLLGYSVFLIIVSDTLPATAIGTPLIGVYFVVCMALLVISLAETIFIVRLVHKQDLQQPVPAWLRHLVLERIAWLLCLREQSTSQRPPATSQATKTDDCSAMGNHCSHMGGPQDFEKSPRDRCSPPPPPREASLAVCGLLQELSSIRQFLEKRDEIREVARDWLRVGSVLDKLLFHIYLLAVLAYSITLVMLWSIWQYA

[10] = target: Melanocortin receptor 3 (Homo sapiens, UniProt P41968)
[11] = target: T4, Type-1 angiotensin II receptor (Homo sapiens, UniProt P30556)
T4 sequence (P30556 whole entry): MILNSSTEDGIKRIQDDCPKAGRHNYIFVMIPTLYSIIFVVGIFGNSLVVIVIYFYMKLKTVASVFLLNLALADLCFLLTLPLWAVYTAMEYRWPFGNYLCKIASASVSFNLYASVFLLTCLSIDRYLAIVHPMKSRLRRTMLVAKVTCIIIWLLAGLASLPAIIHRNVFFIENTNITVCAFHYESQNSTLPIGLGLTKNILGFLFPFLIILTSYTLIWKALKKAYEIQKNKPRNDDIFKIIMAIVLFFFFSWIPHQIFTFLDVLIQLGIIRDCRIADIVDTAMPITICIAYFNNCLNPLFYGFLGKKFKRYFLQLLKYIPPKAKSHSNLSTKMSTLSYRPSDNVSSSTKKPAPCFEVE

[12] = target: T5, Adenosine receptor A3 (Homo sapiens, UniProt P0DMS8)
T5 sequence (P0DMS8 whole entry): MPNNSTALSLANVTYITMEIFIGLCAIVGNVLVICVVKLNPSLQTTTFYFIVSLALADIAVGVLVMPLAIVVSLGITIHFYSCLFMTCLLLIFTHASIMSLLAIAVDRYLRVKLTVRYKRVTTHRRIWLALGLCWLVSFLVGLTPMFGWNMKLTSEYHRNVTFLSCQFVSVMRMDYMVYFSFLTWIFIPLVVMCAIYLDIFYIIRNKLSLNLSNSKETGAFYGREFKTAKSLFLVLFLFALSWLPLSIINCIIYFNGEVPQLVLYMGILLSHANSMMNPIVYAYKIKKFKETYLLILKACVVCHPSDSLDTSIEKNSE

[13] = target: Growth hormone secretagogue receptor type 1 (Homo sapiens, UniProt Q92847)
[14] = target: Sodium-dependent noradrenaline transporter (Homo sapiens, UniProt P23975)
Further: assay procedure not described here.

Melanocortin receptor 3, sequence (P41968 whole entry): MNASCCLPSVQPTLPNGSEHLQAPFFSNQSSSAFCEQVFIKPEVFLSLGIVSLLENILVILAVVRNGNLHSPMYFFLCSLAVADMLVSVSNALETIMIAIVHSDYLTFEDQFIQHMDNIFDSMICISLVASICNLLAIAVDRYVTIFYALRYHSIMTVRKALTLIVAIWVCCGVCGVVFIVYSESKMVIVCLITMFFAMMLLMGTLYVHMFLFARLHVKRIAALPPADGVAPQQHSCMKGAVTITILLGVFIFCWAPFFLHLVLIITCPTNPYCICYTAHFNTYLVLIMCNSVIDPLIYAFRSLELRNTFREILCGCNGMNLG
Motilin receptor, sequence (O43193 whole entry): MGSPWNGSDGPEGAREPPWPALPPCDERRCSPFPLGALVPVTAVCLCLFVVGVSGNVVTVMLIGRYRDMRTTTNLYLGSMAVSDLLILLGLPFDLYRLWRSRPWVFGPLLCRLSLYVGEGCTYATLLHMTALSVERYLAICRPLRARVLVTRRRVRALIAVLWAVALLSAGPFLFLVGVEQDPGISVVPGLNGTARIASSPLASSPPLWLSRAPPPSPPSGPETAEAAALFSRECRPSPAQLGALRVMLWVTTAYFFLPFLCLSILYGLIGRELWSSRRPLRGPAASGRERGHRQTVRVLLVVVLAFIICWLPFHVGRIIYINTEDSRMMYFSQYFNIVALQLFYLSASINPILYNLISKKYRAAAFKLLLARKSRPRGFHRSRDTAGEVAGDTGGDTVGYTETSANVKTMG
Growth hormone secretagogue receptor type 1, sequence (Q92847 whole entry): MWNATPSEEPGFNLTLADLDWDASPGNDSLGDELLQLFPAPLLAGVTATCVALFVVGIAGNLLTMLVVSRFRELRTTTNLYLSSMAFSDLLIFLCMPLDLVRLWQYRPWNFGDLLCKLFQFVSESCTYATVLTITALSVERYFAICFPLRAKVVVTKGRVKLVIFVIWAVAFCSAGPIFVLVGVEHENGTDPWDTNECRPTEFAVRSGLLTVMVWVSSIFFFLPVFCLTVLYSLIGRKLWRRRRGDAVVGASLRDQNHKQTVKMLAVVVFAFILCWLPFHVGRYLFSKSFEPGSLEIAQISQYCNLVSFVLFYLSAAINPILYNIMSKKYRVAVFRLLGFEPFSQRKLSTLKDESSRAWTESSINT
Adenosine receptor A2a, sequence (P29274 whole entry): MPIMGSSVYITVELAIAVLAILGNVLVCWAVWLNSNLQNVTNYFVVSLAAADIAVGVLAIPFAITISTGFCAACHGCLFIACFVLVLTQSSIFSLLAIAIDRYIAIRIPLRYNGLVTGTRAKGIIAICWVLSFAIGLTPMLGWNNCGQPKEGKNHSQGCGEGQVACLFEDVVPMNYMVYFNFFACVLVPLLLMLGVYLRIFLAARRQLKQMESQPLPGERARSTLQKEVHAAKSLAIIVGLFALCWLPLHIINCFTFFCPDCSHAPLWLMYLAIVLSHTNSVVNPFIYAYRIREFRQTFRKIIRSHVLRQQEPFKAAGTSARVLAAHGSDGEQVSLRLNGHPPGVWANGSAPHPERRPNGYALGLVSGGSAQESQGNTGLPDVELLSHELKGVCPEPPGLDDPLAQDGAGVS
Sodium-dependent noradrenaline transporter, sequence (P23975 whole entry): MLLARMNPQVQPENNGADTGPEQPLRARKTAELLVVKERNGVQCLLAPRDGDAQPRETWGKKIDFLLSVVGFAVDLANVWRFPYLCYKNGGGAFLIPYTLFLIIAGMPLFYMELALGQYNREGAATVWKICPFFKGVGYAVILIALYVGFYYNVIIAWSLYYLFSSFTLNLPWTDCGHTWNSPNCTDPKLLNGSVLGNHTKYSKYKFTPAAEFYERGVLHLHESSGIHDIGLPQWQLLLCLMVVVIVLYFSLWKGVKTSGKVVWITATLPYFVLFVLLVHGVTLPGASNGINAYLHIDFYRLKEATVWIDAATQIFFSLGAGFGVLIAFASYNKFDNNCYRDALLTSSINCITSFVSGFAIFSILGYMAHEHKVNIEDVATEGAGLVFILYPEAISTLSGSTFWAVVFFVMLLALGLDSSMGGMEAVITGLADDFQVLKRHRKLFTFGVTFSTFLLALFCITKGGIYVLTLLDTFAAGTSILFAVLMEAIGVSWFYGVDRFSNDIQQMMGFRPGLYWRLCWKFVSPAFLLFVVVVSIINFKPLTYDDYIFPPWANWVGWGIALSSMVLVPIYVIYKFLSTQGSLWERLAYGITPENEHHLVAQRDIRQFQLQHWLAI
Neuronal acetylcholine receptor subunit alpha-4, sequence (P43681 whole entry): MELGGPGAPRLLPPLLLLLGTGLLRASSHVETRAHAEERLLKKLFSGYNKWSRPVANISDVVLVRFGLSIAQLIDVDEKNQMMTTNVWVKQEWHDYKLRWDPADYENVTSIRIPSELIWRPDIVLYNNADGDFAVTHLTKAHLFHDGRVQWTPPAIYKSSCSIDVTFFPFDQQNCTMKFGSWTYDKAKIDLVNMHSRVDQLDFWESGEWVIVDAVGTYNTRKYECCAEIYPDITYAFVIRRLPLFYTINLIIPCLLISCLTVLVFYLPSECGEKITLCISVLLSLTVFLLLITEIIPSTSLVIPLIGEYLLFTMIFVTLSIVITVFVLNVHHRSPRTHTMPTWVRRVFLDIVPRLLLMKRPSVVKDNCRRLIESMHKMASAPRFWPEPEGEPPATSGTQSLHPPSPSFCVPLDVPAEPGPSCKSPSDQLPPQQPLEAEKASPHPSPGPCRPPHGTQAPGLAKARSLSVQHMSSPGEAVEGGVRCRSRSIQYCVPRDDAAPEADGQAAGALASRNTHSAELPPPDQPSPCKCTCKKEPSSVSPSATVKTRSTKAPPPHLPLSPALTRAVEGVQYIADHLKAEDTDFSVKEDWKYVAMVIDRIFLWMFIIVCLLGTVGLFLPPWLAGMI
5-hydroxytryptamine receptor 2B, sequence (P41595 whole entry): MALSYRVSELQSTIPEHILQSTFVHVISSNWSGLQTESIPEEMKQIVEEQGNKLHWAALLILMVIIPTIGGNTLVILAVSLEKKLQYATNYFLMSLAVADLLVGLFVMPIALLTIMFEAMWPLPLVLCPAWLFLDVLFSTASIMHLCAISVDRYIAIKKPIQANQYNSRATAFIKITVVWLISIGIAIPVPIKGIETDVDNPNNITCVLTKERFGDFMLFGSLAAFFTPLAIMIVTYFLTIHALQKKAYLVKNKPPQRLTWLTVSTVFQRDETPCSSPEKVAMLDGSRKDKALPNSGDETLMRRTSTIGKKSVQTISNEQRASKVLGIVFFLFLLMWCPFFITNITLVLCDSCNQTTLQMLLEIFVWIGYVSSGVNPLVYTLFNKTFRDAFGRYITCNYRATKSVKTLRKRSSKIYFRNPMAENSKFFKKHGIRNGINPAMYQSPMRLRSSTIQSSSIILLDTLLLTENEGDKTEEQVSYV
D(3) dopamine receptor, sequence (P35462 whole entry): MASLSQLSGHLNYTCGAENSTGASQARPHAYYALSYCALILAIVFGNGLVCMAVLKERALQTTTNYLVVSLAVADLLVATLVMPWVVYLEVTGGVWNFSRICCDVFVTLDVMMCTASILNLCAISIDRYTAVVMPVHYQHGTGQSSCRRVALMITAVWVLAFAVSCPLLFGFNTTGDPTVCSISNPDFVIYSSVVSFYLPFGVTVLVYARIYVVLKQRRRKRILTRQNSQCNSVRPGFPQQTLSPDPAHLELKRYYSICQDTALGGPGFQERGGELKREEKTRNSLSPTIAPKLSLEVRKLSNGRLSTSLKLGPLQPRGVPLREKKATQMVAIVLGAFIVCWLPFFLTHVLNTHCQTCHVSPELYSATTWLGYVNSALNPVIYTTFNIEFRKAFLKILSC
Bile salt export pump, sequence (O95342 whole entry): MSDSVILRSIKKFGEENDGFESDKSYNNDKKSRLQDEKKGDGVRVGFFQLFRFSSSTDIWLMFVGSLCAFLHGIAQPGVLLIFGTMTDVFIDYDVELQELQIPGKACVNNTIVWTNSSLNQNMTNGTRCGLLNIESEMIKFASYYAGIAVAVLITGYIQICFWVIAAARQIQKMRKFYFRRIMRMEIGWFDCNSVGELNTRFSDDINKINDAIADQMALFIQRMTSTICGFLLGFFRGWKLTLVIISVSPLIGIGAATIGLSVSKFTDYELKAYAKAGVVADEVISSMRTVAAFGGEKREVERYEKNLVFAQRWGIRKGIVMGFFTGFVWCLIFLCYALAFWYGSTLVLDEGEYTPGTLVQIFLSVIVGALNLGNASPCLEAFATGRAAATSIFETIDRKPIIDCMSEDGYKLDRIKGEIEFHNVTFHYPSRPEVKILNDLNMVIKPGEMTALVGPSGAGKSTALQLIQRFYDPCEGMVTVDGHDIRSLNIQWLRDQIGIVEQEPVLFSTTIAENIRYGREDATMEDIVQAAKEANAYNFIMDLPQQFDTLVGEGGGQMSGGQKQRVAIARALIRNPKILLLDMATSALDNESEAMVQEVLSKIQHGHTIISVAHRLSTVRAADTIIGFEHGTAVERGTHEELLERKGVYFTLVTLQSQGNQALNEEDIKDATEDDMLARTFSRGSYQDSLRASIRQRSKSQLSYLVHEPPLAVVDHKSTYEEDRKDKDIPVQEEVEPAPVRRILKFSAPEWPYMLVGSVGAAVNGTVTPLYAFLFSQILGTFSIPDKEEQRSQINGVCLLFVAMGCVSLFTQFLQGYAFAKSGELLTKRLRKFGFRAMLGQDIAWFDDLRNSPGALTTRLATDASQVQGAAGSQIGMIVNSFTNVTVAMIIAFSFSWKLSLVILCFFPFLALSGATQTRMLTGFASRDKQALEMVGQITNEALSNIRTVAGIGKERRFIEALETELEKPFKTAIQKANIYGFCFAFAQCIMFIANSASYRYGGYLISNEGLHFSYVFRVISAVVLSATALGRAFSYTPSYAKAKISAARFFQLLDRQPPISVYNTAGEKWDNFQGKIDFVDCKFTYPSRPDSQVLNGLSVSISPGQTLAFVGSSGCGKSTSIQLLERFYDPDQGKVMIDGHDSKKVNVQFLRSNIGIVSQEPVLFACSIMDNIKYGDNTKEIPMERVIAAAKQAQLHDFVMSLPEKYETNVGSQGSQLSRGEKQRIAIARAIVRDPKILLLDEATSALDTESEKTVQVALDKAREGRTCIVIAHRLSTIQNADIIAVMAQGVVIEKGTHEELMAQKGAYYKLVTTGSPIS

Compound | AC50 [1] | AC50 [2] | AC50 [3] | AC50 [4] | AC50 [5] | AC50 [6] | AC50 [7] | AC50 [8] | AC50 [9] | AC50 [10] | AC50 [11] | AC50 [12] | AC50 [13] | AC50 [14]
Cn1cnc2c(F)c(Nc3ccc(Br)cc3F)c(C(=O)NOCCO)cc21 [BINIMETINIB] | > 30 µM | 87 µM | > 30 µM | > 30 µM | > 30 µM | > 30 µM | > 30 µM | > 30 µM | > 30 µM | > 30 µM | > 30 µM | > 30 µM | > 30 µM | > 30 µM
CN(C)CCOC(c1ccc(Cl)cc1)c1ccccn1 (stereo not drawn) [CARBINOXAMINE] | > 30 µM | > 300 µM | > 30 µM | > 30 µM | > 30 µM | > 30 µM | > 30 µM | > 30 µM | > 30 µM | > 30 µM | > 30 µM | > 30 µM | > 30 µM | 24 µM
CCN(CC)CCn1c(=O)c(Cc2ccc(OC)cc2)nc2ccccc21 [CAROVERINE] | > 30 µM | > 300 µM | > 30 µM | > 30 µM | 7.34 µM | > 30 µM | > 30 µM | 16.8 µM | 29 µM | > 30 µM | > 30 µM | 27 µM | 6.47 µM | > 30 µM
C[C@H](CCC(=O)O)[C@H]1CC[C@H]2[C@@H]3[C@H](O)C[C@@H]4C[C@H](O)CC[C@]4(C)[C@H]3CC[C@]12C [CHENODIOL] | > 30 µM | 13 µM | > 30 µM | > 30 µM | > 30 µM | > 30 µM | > 30 µM | > 30 µM | > 30 µM | > 30 µM | > 30 µM | > 30 µM | > 30 µM | > 30 µM

The next lines start with the values.

AC50 [1] | AC50 [2] | AC50 [3] | AC50 [4] | AC50 [5] | AC50 [6] | AC50 [7] | AC50 [8] | AC50 [9] | AC50 [10] | AC50 [11] | AC50 [12] | AC50 [13] | AC50 [14] | Compound
> 30 µM | > 300 µM | > 30 µM | > 30 µM | > 30 µM | > 30 µM | > 30 µM | > 30 µM | > 30 µM | > 30 µM | > 30 µM | > 30 µM | > 30 µM | > 30 µM | CC(C)C[C@H](NC(=O)[C@H](Cc1ccccc1)NC(=O)c1cnccn1)B(O)O [BORTEZOMIB]
> 30 µM | > 300 µM | > 10 µM | > 30 µM | > 30 µM | > 10 µM | > 10 µM | > 10 µM | > 30 µM | > 30 µM | > 30 µM | > 30 µM | > 30 µM | > 30 µM | C[C@H](CS)C(=O)N1CCC[C@H]1C(=O)O [CAPTOPRIL]
> 30 µM | > 300 µM | > 30 µM | > 30 µM | > 30 µM | > 30 µM | > 30 µM | > 30 µM | > 30 µM | > 30 µM | > 30 µM | > 30 µM | > 30 µM | > 30 µM | O=C(O)[C@H]1/C(=C/CO)O[C@@H]2CC(=O)N21 [CLAVULANIC ACID]
